# According to patent publication US20220104481A1, “CRYOPRESERVATION OF STEM CELLS” (TiGenix, S.A.U., priority 2019, published 2022):
# Entries after “also recorded” stand apart in the source; their conditions may differ.
# System: CD14 and CD1a on mature dendritic cells
# Test: Surface expression of CD14 and CD1a by mDC co-cultured with ASCs (flow cytometry)
# Assay type: cell-based, human
# Conditions: NAC-pretreated ASCs, donors A and B (FIG. 15)
# Experimental: After differentiation in monoculture or co-culture in vitro (the differentiation conditions, including the cytokines used, concentrations and times of differentiation, are provided in Example 7), macrophages and mDC were harvested using 0.05% trypsin-EDTA for 10 minutes at 37° C., after supernatants were collected and frozen for future cytokine and/or HPLC analysis. After mDC were counted, they were distributed into 96-well V bottom plates for staining (Nunc #249570). Cells were incubated in Blue MACS buffer with 1% human serum for 15 minutes on ice, to block Fcγ receptor-mediated nonspecific antibody binding. Subsequently, cells were stained for 20 minutes on ice with the following antibody mixes (staining in 50 μL of 1:10 antibody dilution; except for CD64, which was 1:20 dilution): Cell viability was assessed by addition of 5 μL of 7AAD per well and staining for 10 minutes on ice, and samples were acquired in a BD Fortessa cytometer. Results were analysed in FSC Express software. The effect of NAC pretreatment (according to Example 2) on thawed ASC mediated effects on the surface expression of CD14 and CD1a on mature dendritic cells was also measured by flow cytometry. mDC are CD14-CD1a+. CD1a is the antigen-presenting molecule, and mediates the presentation of antigens by mDC to other cells of the immune system to activate their response. […]
smiles,measurement,value
"CC(=O)N[C@@H](CS)C(=O)O [NAC, N-Acetylcysteine]",ASC-induced formation of CD14+CD1a- regulatory mDC population,does not alter the ability of thawed ASCs to induce the formation of this mDC regulatory population; also recorded: did not modify this effect
